Calls of active or inactive are those of the source. Cut-off read from the data, not from the text of the source, for most assays here: actives have a measured EC50 and inactives only a lower limit.
What was measured:
[1] = biological target: T1, Rac GTPase-activating protein 1 (Homo sapiens, UniProt Q9H0H5); assay: blockers of MgcRacGAP-driven Rac1 GTP hydrolysis – biochemical, ADP Hunter fluorescence, primary and confirmatory, confirmation (AID 624330); type: functional
T1 sequence (Q9H0H5 whole entry): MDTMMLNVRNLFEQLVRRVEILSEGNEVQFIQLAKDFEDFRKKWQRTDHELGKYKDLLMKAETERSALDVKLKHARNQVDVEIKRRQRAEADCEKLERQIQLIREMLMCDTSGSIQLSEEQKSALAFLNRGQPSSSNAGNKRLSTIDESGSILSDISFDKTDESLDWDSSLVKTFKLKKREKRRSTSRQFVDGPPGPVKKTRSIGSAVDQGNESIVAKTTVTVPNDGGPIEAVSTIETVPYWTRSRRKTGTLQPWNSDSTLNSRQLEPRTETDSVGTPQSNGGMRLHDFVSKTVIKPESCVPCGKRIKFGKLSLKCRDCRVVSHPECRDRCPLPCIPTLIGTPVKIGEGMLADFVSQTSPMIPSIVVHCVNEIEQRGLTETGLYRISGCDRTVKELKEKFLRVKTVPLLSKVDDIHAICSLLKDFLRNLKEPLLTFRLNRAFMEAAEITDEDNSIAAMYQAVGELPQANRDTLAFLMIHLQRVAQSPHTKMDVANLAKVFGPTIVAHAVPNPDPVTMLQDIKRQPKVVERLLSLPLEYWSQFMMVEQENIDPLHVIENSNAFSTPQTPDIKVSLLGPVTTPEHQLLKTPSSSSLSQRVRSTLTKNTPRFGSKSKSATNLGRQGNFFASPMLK

[2] = biological target: T2, Heat shock factor protein 1 (Mus musculus, UniProt P38532); assay: enhancement of HSF1-driven luciferase signal – cell-based, NIH3T3, luminescence, dose retest, confirmation (AID 435004); type: functional;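 note: stress induced by proteasome inhibitor MG132 added 30 min after compound; luciferase reporter driven by HSF1 response element in NIH3T3 cells; actives raise luminescence as potentiators of the MG132 stress response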
T2 sequence (P38532 whole entry): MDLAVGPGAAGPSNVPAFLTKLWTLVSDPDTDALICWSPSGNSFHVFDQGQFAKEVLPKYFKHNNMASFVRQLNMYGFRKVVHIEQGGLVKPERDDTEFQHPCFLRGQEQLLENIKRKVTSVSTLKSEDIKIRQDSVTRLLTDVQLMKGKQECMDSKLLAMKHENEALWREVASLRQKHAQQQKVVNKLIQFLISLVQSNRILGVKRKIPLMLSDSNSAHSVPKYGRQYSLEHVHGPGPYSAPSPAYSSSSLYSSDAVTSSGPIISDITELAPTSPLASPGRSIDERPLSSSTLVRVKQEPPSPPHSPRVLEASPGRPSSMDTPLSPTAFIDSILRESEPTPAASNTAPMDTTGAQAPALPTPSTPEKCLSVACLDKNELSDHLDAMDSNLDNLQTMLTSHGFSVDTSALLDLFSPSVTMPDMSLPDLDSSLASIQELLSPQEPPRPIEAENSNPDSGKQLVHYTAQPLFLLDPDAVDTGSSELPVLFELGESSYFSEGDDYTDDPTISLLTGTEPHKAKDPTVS

[3] = biological target: T2, Heat shock factor protein 1; assay: decrease of HSF1-responsive luciferase luminescence – cell-based, NIH3T3, dose retest, confirmation (AID 2382); type: functional;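 note: NIH3T3 fibroblasts with HSF1-driven luciferase reporter stressed by proteasome inhibitor MG132; luminescence from HSF1-driven luciferase expression after 8 hours of MG132 stress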
[4] = biological target: T3, Corticotropin-releasing factor receptor 2/Corticotropin-releasing factor-binding protein (Homo sapiens, UniProt P24387+Q13324); assay: Dose Response confirmation of uHTS hits for small molecule antagonists of the CRF-binding protein and CRF-R2 receptor complex.; type: functional; conditions: read-out: IC50_Mean
T3 sequence (Q13324 whole entry): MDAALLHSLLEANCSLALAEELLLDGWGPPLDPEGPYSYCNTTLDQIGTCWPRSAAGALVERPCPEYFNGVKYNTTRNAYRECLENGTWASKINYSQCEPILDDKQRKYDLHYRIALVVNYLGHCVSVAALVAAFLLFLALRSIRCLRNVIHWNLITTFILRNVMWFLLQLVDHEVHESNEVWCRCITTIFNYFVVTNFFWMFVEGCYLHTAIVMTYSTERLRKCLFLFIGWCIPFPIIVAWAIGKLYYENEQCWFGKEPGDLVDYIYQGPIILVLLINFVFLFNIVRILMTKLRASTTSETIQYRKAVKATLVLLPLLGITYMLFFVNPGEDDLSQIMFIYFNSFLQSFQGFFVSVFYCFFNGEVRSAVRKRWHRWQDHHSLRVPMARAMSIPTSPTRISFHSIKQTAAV
T3 sequence (P24387 whole entry): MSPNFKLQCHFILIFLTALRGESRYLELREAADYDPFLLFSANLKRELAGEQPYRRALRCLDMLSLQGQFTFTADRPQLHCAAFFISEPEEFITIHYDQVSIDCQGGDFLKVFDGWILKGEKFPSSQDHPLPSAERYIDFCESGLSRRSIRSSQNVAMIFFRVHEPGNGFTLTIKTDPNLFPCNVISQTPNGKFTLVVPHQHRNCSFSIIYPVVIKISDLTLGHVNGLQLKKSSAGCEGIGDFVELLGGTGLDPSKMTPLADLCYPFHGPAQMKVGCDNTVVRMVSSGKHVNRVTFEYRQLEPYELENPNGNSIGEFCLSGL

[5] = biological target: T3, Corticotropin-releasing factor receptor 2/Corticotropin-releasing factor-binding protein; assay: activators of CRF receptor 2 with binding protein – uHTS hits, confirmation (AID 602473); type: functional; conditions: read-out: EC50_Mean
[6] = biological target: T4, RNA-binding protein pos-1 (Caenorhabditis elegans, UniProt G5EF15); assay: disruptors of C. elegans POS-1 RNA interaction – biochemical, fluorescence polarization, dose response (AID 1964);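 note: purified POS-1 fused to maltose binding protein made in E. coli; potency of compounds blocking POS-1 binding to fluorescent RNA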
T4 sequence (G5EF15 whole entry): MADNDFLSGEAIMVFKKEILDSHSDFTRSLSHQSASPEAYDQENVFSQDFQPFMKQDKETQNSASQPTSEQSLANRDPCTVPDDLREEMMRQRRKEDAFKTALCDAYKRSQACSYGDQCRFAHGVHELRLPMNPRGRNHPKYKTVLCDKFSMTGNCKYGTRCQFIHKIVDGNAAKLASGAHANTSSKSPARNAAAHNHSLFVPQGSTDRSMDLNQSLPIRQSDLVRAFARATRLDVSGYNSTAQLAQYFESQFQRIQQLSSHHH

[7] = biological target: T5, Zinc finger protein mex-5 (Caenorhabditis elegans, UniProt Q9XUB2); assay: potency of MEX-5 RNA-binding blockers – biochemical, C. elegans, fluorescence polarization, dose response (AID 1960)
T5 sequence (Q9XUB2 whole entry): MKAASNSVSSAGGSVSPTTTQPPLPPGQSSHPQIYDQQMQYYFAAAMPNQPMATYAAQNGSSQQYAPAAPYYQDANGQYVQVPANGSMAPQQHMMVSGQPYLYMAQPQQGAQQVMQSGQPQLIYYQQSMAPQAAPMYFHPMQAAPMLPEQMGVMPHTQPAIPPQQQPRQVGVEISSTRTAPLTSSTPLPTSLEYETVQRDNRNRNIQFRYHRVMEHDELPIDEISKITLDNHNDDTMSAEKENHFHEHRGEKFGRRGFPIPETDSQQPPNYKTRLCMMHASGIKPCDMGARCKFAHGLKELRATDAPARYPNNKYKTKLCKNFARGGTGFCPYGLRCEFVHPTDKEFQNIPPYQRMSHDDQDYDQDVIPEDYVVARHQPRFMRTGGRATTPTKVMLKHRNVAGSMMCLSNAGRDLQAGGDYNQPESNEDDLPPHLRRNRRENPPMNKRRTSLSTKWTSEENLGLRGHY

CC(C)c1ccc(CNc2ccc(N3CCOCC3)cc2)cc1
IC50 [1]: 12.4 µM (active)

CC(NC(=O)c1ccc(C(C)(C)C)cc1)C(c1cccs1)N1CCOCC1 (centres undefined)
EC50 [2]: > 260 µM (inactive)

Cc1nc(Nc2ccccc2)sc1C
EC50 [3]: > 195 µM (not active)

CCN(C(=O)COC(=O)Cc1cccc2ccccc12)C1CCS(=O)(=O)C1 (centres undefined)
IC50 [4]: > 47.1 µM (inactive) | EC50 [5]: > 53 µM (inactive)

Nc1nc(CN2CCc3ccccc3C2)nc(Nc2ccccc2)n1
IC50 [4]: > 47.1 µM (inactive) | EC50 [5]: > 53 µM (inactive)

O=C(CNC(=O)C1CCCCC1)OCC(=O)c1ccc(Br)cc1
EC50 [2]: > 260 µM (inactive)

N=C(Cc1ccc([N+](=O)[O-])cc1)NOC(=O)c1ccc(Br)cc1
IC50 [4]: 9.38 µM (active) | EC50 [5]: > 53 µM (inactive)

CCN(CC)P(=O)(NC(=O)c1cccn1C)N(CC)CC
EC50 [3]: > 195 µM (not active)

COc1ccc(N2CCN(c3ccc(C(N)=O)cc3[N+](=O)[O-])CC2)cc1
IC50 [1]: 158 µM (active)

COc1ccccc1-c1cc(C(=O)NN)[nH]n1
IC50 [4]: > 47.1 µM (inactive) | EC50 [5]: > 53 µM (inactive)

Oc1ccc(-c2csc(Nc3ncccn3)n2)cc1
IC50 [1]: 21.4 µM (active)

O=C(Nc1cccc(Cl)c1)N(Cc1nc(O)c2ccccc2n1)C1CCCC1
EC50 [2]: > 260 µM (inactive)

COc1ccc(-c2nc(C#N)c(N3CCCCC3)o2)cc1
EC50 [2]: > 260 µM (inactive)

Cc1nn(-c2ccccc2)c(C)c1NC(=O)COC(=O)c1ccccc1OC(F)F
IC50 [4]: > 47.1 µM (inactive) | EC50 [5]: > 53 µM (inactive)

CCOC(=O)C1C(=O)OC(C)(C)C1C(C)C(=O)c1ccc(C)cc1C (centres undefined)
EC50 [2]: > 260 µM (inactive)

CCOC(=O)c1[nH]c2ccc(OC)cc2c1NC(=O)c1ccccc1C(=O)O
IC50 [1]: 109 µM (active)

CN1CCN(S(=O)(=O)c2cccc(C(=O)NCCC3=CCCCC3)c2)CC1
EC50 [3]: > 195 µM (not active)

COC(=O)c1cccc(N2C(=O)C3CC=CCC3C2=O)c1 (centres undefined)
EC50 [3]: > 100 µM (not active)

O=C(CN1CCN(c2ccccn2)CC1)Nc1ccc(F)cc1
IC50 [1]: 78.9 µM (active)

CC(C)C(=O)N1c2ccccc2N=C2CCCC(O)=C2C1c1ccc(N(C)C)cc1 (centres undefined)
EC50 [3]: > 195 µM (not active)

COc1ccc(CNC(=O)CN2CCN(c3ccc(F)cc3)CC2)cc1
IC50 [4]: > 47.1 µM (inactive) | EC50 [5]: > 53 µM (inactive)

N#CC1=C(N)N2C(=C(C#N)C13CCCCC3)SC1CCCCC12O (centres undefined)
EC50 [2]: > 260 µM (inactive)

O=C(CCNC(=O)c1ccc(Cl)cc1)Nc1ncccc1O
EC50 [3]: > 195 µM (not active)

O=C(c1cccc([N+](=O)[O-])c1)c1ccc2c(c1)OCCOCCOCCO2
IC50 [4]: > 47.1 µM (inactive) | EC50 [5]: > 53 µM (inactive)

COc1ccc(NC(=O)C(=O)NCC(=O)Nc2cccc(C(F)(F)F)c2)cc1
IC50 [4]: > 47.1 µM (inactive) | EC50 [5]: > 53 µM (inactive)

CCCC(C(=O)NCc1ccco1)N(C(=O)CNS(=O)(=O)c1ccc(Cl)cc1)C1CCCC1 (centres undefined)
EC50 [2]: > 260 µM (inactive)

Cc1ccccc1[N+](=O)[O-]
IC50 [4]: > 47.1 µM (inactive) | EC50 [5]: > 53 µM (inactive)

CC(C)CNC(=O)c1noc2c1CCCC2
EC50 [3]: > 195 µM (not active)

CSc1ccc(C(=O)C2CCCN(Cc3cccnc3)C2)cc1 (centres undefined)
EC50 [2]: > 260 µM (inactive)

COc1cc(C(=O)NCc2ccccc2Cl)ccc1OCC(=O)N1CCOCC1
IC50 [4]: > 47.1 µM (inactive) | EC50 [5]: > 53 µM (inactive)

COc1cc(/C=C/C(=O)OCC(=O)NCCC2=CCCCC2)ccc1O
IC50 [1]: 49 µM (active)

CC(C)Cc1ccc(C#N)c(SCC(N)=O)n1
EC50 [3]: > 195 µM (not active)

Cc1cc(-c2nc3ncccc3o2)ccc1NC(=S)NC(=O)C(C)C
EC50 [2]: > 260 µM (inactive)

O=C(O)c1cc(S(=O)(=O)N(Cc2ccccc2)c2ccccc2Cl)ccc1Cl
EC50 [3]: > 195 µM (not active)

COc1ccccc1C(=O)OCC(=O)c1cccc([N+](=O)[O-])c1
EC50 [3]: > 195 µM (not active)

CCOc1ccccc1Nc1ccnc2cc(Cl)ccc12
IC50 [4]: > 47.1 µM (inactive) | EC50 [5]: > 53 µM (inactive)

CC1(C)CC(=O)C=C(Nc2ccc(Br)cc2F)C1
EC50 [3]: > 195 µM (not active)

OCCC1CN(Cc2cccc(-n3cccn3)c2)CCN1Cc1ccccc1 (centres undefined)
EC50 [3]: > 195 µM (not active)

COc1ccc(C2c3ccc(O)cc3Oc3ncn(Cc4ccco4)c(=N)c32)cc1OC (centres undefined)
EC50 [6]: > 300 µM (not active) | EC50 [7]: > 300 µM (not active)

CCOc1ccc(N2C(=O)NC(=O)/C(=C\Nc3ccc(N4CCOCC4)cc3)C2=O)cc1
EC50 [6]: 17.6 µM (inconclusive) | EC50 [7]: 60.4 µM (inconclusive)

COC(=O)C1=C(C)N(Cc2ccco2)C(=O)C1
EC50 [3]: > 195 µM (not active)

Cc1ccc(NC(=O)CCS(=O)(=O)c2cc3c(cc2Cl)NC(=O)CO3)cc1
EC50 [6]: > 300 µM (not active) | EC50 [7]: > 300 µM (not active)

CC1CC(C)CN(CC(=O)NC(c2ccccc2)c2ccccc2)C1 (centres undefined)
IC50 [1]: 231 µM (active)

Oc1ccc(/C=N/NC2=NCCCCC2)c(O)c1
IC50 [1]: 43.2 µM (active)

CCn1c(S)nc2c(=O)n(C)c(=O)n(C)c21
IC50 [1]: 21.1 µM (active)

C#CCOc1ccccc1CNC1CCN(Cc2ccccc2)CC1
IC50 [1]: 64.9 µM (active)

Cc1ccc2c(c1)N(CC(=O)O)C(=O)CO2
EC50 [3]: > 195 µM (not active)

CCC(C)n1c(=N)c(C#N)cc2c(=O)n3cccc(C)c3nc21 (centres undefined)
EC50 [6]: 296 µM (active) | EC50 [7]: 21.5 µM (inconclusive)

Cc1cc(C)c(NC(=O)CSc2nnc(-c3ccncc3)n2Cc2ccco2)c(Cl)c1
EC50 [3]: > 195 µM (not active)

From ChEMBL document CHEMBL1201862, “PubChem BioAssay data set” (2004)
